Test results: patent US20250205152A1, “METHOD OF PREVENTING AGE-RELATED MACULAR DEGENERATION BY ADMINISTERING AN OCULAR DRUG DELIVERY INSERT” (EYEPOINT PHARMACEUTICALS, INC., priority 2022, published 2025)
Entries after “also recorded” stand apart in the source; their conditions may differ. One block for each compound: values may come before it.

What was measured:
[1] = test system: Swine (Mini-pig) Model of Laser-Induced Choroidal Neovascularization (CNV); assay: Laser-induced choroidal neovascularization model, fluorescein angiography (CTLF); type: in vivo; details: Day 0
Protocol: Safety and efficacy of a vorolanib insert were evaluated in a Swine (Mini-pig) Model of Laser-Induced Choroidal Neovascularization (CNV). The primary objective of this study was to evaluate the long-term safety and inhibition of vascular permeability and neovascularization in a laser-induced model of choroidal neovascularization (CNV) using a vorolanib insert in swine.
On the day of lasering (Groups 1-4) animals were treated with an 810 nm diode laser delivered through an indirect ophthalmoscope. Approximately 6 single laser spots were placed between retinal veins. Both eyes underwent laser treatment according to the schedule in the table above.
On the day of intravitreal injections animals were anesthetized and the eyes were aseptically prepared. […] Animals were allowed to recover normally from the procedure. The pigs were given a topical drop of antibiotic ophthalmic solution 4-6 hours later, and then BID for 2 additional days with at least 6 hours between doses. Animals were dosed on either Day 0 immediately following laser CNV induction or 7 days prior to laser CNV induction according to the schedule in the table above.
Flourescein Angiography was done in both eyes in anesthetized animals at the timepoints as indicated in the experimental design table.

[2] = Solubility of vorolanib in water; type: physicochemical
Protocol: Vorolanib has the chemical designation (S,Z)—N-(1-(Dimethylcarbamoyl) pyrrolidin-3-yl)-5-((5-fluoro-2-oxoindolin-3-ylidene)methyl)-2,4-dimethyl-1H-pyrrole-3-carboxamide. Synonyms include the term “X-82”. The molecular formula is C23H26FN5O3. The solubility of vorolanib in water is less than 10 μg/mL.

[3] = test system: sodium Hyaluronate-induced retinal detachment; assay: Sodium hyaluronate-induced retinal detachment model: OKT and OCT; type: in vivo, C57Bl/6 mice
Protocol: (§1) An 18-day study was conducted in age-matched and experimentally naive C57Bl/6 mice. Prior to experiments, the mice were randomly distributed into two separate study arms, and identification numbers were assigned to individual mice. Prior to dosing initiation, baseline experiments were conducted to measure visual acuity and contrast vision by optokinetic tracking (OKT), and to measure retinal and outer nuclear layer (ONL) thickness in images obtained by optical coherence tomography (OCT). On Day 1, and continuing until Day 18, the mice received once a day oral administration of vehicle (Arm 1), or Vorolanib at 40 mg/kg (Arm 2). On Day 2, bilateral subretinal injection of sodium hyaluronate was performed to induce retinal detachment. On Day 16, visual acuity and contrast vision thresholds were measured, and on Day 17, OCT was performed to measure retinal and ONL thickness. On Day 18, terminal collections were performed at either 30 minutes, or 4 hours, post-administration, with whole blood collected and processed to plasma, left eyes collected and fixed for histology, and right eyes collected and dissected to yield cornea, lens, retinal pigment epithelium (RPE)/choroid/sclera, and retina, separately.
Mouse eyes were dilated and the animals were anesthetized according to standard operating procedures. The mouse was placed on a regulated heating pad, and the posterior pole was visualized under magnification. A 12.7 mm 30-gauge insulin syringe was used to puncture the cornea just above the corneal limbus, avoiding any contact with the sclera and lens. The transvitreal subretinal injections were performed using a 10 μL Hamilton syringe with a 33-gauge blunt needle inserted through the corneal puncture across the vitreous, with the shaft aimed at the back of the eyecup, avoiding any trauma to the lens or iris. A total volume of 1 μL was delivered.
OKT is performed using an OptoMotry designed for rodent use (Cerebral Mechanics Inc.). In this non-invasive assessment, mice are placed onto a platform surrounded by 4 LCD screens which reside within a light-protected box. Visual stimuli are then presented to the mouse via the LCD screens and a masked observer visualizes and scores optokinetic tracking reflexes from a digital camcorder which is mounted on the top of the box. The monitors display continuous vertical sine wave gratings rotating across the monitors at 12 degrees/s which appear to the animal as a virtual three-dimensional rotating […]. The rotation of the virtual cylinder is constantly centered at the animal's viewing position to ensure a consistent viewing distance. Tracking movements are identified as slow, steady head movements in the direction of the rotating grating. For measurements of spatial frequency threshold, mice were tested at a range of spatial frequencies from 0.064 to 0.464 cycles/degree. […] All measurements of contrast threshold were performed at a spatial frequency threshold of 0.064 cycles/degree. The contrast threshold is calculated as a reciprocal of the Michelson contrast from the screen's luminance (maximum−minimum)/(maximum+minimum). The reciprocal of the contrast threshold is plotted.
Animals were anesthetized and eyes were dilated according to standard procedures. Following sedation and dilation, animals were secured on a platform and presented to a Micron
IV OCT module (Phoenix Research Inc.) for imaging. The total retina thickness and outer nuclear layer thickness were measured from vertical and horizontal scans within each eye, and the data was plotted as the average retinal thickness across the scans.
Graphs were generated using GraphPad Prism (v. 9.4.0). […]

[4] = Plasma and ocular tissue levels after oral vorolanib in the retinal detachment study; type: in vivo, C57Bl/6 mice; details: 40 mg/kg oral once a day
Protocol: as §1
(§2) Day 18 at 30 min±5 min following oral administration of vehicle or test agent: Terminal plasma collection; Enucleation of eyes with left eyes fixed in 10% NBF and right eyes dissected to yield cornea, lens, RPE/choroid/sclera, and retina, with tissue snap frozen in liquid N2 with tube and tissue weights recorded (n=4 mice/arm).
as §2, with “4 hr±15” for “30 min±5”
Oral gavage was performed on conscious mice by trained personnel; no anesthesia was required. […]

[5] = 40 mg/kg oral once a day, baseline to Day 17, OCT

Compound: aflibercept: VEGF inhibitor (Regeneron), intravitreal injection, positive control
efficacy in laser CNV model ([1]; 2 mg IVT): normal amounts of efficacy
Corrected Total Lesion Fluorescence (CTLF) value, change from Day 7 to Day 28 ([1]; Group 1: 2 mg, 50 μL/eye IVT): largest reduction

solubility [2]: < 10 µg/mL
presence in plasma ([4]; 18 consecutive days): present in the plasma up to 4 hours
Compound: Cc1[nH]c(/C=C2\C(=O)Nc3ccc(F)cc32)c(C)c1C(=O)N[C@H]1CCN(C(=O)N(C)C)C1 [vorolanib, (S,Z)—N-(1-(Dimethylcarbamoyl)pyrrolidin-3-yl)-5-((5-fluoro-2-oxoindolin-3-ylidene)methyl)-2,4-dimethyl-1H-pyrrole-3-carboxamide]
overall effect in retinal detachment model ([3]; 40 mg/kg once a day for 18 consecutive days, compared to vehicle): significant neuroprotective effect
mean spatial frequency threshold (SFT) ([3]; 40 mg/kg oral once a day, Day 16): 0.306 cycles/degree
contrast thresholds compared to vehicle ([3]; 40 mg/kg oral once a day, Day 16, P=0.0009): significantly higher; also recorded: statistically significant improvement
loss of contrast vision, baseline to Day 16 ([3]; 40 mg/kg oral once a day, OKT): 41%
loss of visual acuity, baseline to Day 16 ([3]; 40 mg/kg oral once a day, OKT): 23%
loss of ONL thickness in horizontal scans [3, 5]: no loss
loss of ONL thickness in vertical scans [3, 5]: 1%
total retinal thickness across the treatment arms ([3]; 40 mg/kg oral vs vehicle, OCT): no statistically significant differences
difference in mean SFT versus vehicle ([3]; Day 16): not statistically significant
mean retinal thickness across vertical and horizontal scans ([3]; across both arms and timepoints): 222-229 μm
tissue distribution ([4]; 18 days): primarily in RPE/Choroid/Sclera tissue at levels that exceed plasma concentrations
detection in ocular tissues ([4]; up to 4 hours following the terminal dose): within detectable range in all ocular tissues tested, except lens tissue
